Measurements published in patent US20090298875A1, “A Combination of Compounds, Which Can be Used in the Treatment of Respiratory Diseases, Especially Chronic Obstructive Pulmonary Disease (COPD) and Asthma” (ASTRAZENECA AB, priority 2005, published 2009).

Test: Estimated solubility of the salt in organic solvents
Assay type: physicochemical
Protocol: (b) The Form B salt described in (a) above was also prepared by dissolving, in a vial, 20% w of a sample of the benzoate salt prepared by the method of Example 1(b) (Form A) in a solvent such as methanol (>20 mg/ml), ethanol (>20 mg/ml), n-propanol (>20 mg/ml), isopropanol (8.5 mg/ml) or acetone (9.6 mg/ml). The figures in brackets indicate the estimated solubility of the salt in these solvents. The vial was then sealed and the suspension was homogenised at ambient temperature (20° C.) using a magnet. Stirring and temperature were maintained for a period of at least 7 days after which time a sample of the material obtained was dried and tested by XRPD. XRPD confirmed that there had been complete transformation of Form A to Form B.
(a) Form B was prepared by dissolving, in a vial, 20% w of a sample of the furoate salt prepared by the method of Example 1(b) (Form A) in a solvent such as ethanol (16 mg/ml) or 2-butanol (8 mg/ml). The figures in brackets indicate the estimated solubility of the salt in these solvents. The vial was then sealed and the suspension was homogenised at ambient temperature (20° C.) using a magnet. Stirring and temperature were maintained for a period of at least 7 days after which time a sample of the material obtained was dried and tested by XRPD. XRPD confirmed that there had been complete transformation of Form A to Form B.

estimated solubility of the salt (2-butanol)	estimated solubility of the salt (ethanol)	estimated solubility of the salt (acetone)	estimated solubility of the salt (isopropanol)	estimated solubility of the salt (methanol)	estimated solubility of the salt (n-propanol)	Structure (SMILES)
8 mg/mL	16 mg/mL					CC(=O)Nc1ccc(O)cc1OC[C@@](C)(O)CNC1CCN(Cc2ccc(Cl)cc2)CC1.O=C(O)c1ccco1 [1(c), N-{2-[((2S)-3-{[1-(4-chlorobenzyl)piperidin-4-yl]amino}-2-hydroxy-2-methylpropyl)oxy]-4-hydroxyphenyl}acetamide furoate (1:1 Salt), Form A]
	> 20 mg/mL	9.6 mg/mL	8.5 mg/mL	> 20 mg/mL	> 20 mg/mL	CC(=O)Nc1ccc(O)cc1OC[C@@](C)(O)CNC1CCN(Cc2ccc(Cl)cc2)CC1.O=C(O)c1ccccc1 [Example 1(b), N-{2-[((2S)-3-{[1-(4chlorobenzyl)piperidin-4-yl]amino}-2-hydroxy-2-methylpropyl)oxy]-4-hydroxyphenyl}acetamide benzoate (1:1 Salt), Form A]
